The values that follow come from patent publication US20090047567A1, “Biofuel cell, method for producing the same, electronic apparatus, enzyme-immobilized electrode, and method for producing the same” (SONY CORPORATION, priority 2007, published 2009).

For one series, the system named is diaphorase (DI). Put plainly: Michaelis constant Km and rate constant kcat of the enzymatic reaction using the electron mediator as a substrate (cyclic voltammetry in a solution containing NADH and DI). The series is classed as biochemical, Bacillus stearothermophilus. The note with it: for ten times Km: 10 x Km of the electron mediator for DI, read-out: ten times the determined Km; for Km / kcat: electron mediator as substrate of DI, solution containing sufficient amounts of NADH and DI. The text has this:
GDH (EC1. 1. 1. 47) derived from Bacillus sp. was used as GDH, and DI(EC. 1. 6. 99. −) derived from Bacillus stearothermophilus was used as DI. Both were purchased from Amano Enzyme Inc. (Japan) and directly used without further purification. NADH, poly-L-lycine (PLL, Mw=about 93,800), and sodium polyacrylate (PAANa, Mw=about 240,000) were purchased from Sigma-Aldrich Co. VK3 was purchased from Nacalai Tesque, Inc. (Japan).
Then, the method for measuring the Michaelis constant Km and rate constant kcat of the enzymatic reaction using the electron mediator as a substrate is described.
The following electrochemical equation is established between the Michaelis constant Km and rate constant kcat (R. Matsumoto et al, J. Electroanal. Chem. 535 (2002)37).
wherein Is^lim is the current value of a flat portion of a curve obtained by cyclic voltammetry, nM is the number of electrons of the electron mediator, ns is the number of electrons of the substrate, F is the Faraday constant, A is the electrode surface area, DM is the diffusion constant of the substrate, [E] is the enzyme concentration, and [M]* is the concentration of the electron mediator.

Series [1] in a line: Redox potential of the electron mediator by cyclic voltammetry in solution. The series is classed as physicochemical.
Series [2] is described as follows: Cyclic voltammetry of the GC bio-anode with immobilized VK3, no glucose. The series is classed as physicochemical. The conditions noted are these: immobilized VK3 on GC bio-anode; 0.1 M phosphate buffer pH 7.0, glucose absent; vs. Ag|AgCl. On the procedure:
The surface of a glassy carbon (GC) electrode of 3 mm in diameter which was purchased from BAS Inc. was polished with alumina powder having a particle diameter of 0.05 μm and washed with distilled water. Then, GDH, NADH, DI, and VK3 were immobilized on the GC electrode by a polyion complex method using electrostatic interaction between PAAcNa as polyanion and poly-L-lycine (PLL) as polycation according to the following procedures.
On the GC electrode, 10 μl of an aqueous PLL solution (2% (w/v)), 8 μl of a GDH solution (1 U/μl in a 0.1 M phosphate buffer solution (NaH2PO4 buffer solution) (pH 7.0)), 8 μl of a DI solution (10 U/μl in a phosphate buffer solution), 2 μl of a NADH solution (0.9 μmol/μl in a phosphate buffer solution), 4 μl of a VK3 solution (0.29 M in acetone), and 4 μl of an aqueous PAAcNa solution (0.066% (w/v)) were added in that order. After each of the addition steps, drying was performed at 40° C. for 10 minutes. Before electrochemical measurement, the GC electrode (referred to as a “GC bio-anode” hereinafter) on which an immobilized layer had been formed as described above was rinsed with distilled water for 5 minutes.
Cyclic voltammetry (CV) was performed using the GC bio-anode as a working electrode. […]

On to `CC1=CC(=O)c2ccccc2C1=O` [VK3, 2-methyl-1,4-naphthoquinone], for which, in the series with diaphorase (DI), the ten times Km stood at 4 µM, the Michaelis-Menten constant (Km) stood at 0.4 µM and the kcat was determined as 630 s⁻¹. Moreover, in series [1], the “E^o′ vs Ag|AgCl” value was −0.22. Moreover, the “middle point potential of oxidation and reduction waves” value in series [2] is recorded as −0.17 V.

In the case of `NC1=C(C(=O)O)C(=O)c2ccccc2C1=O` [ACNQ, 2-amino-3-carboxy-1,4-naphthoquinone], in the series on diaphorase (DI), the ten times Km is 20 µM, the Km was 2 µM and the kcat was found to be 400 s⁻¹. Also, the “E^o′ vs Ag|AgCl” value in series [1] was −0.26.

Take `NC1=CC(=O)c2ccccc2C1=O` [ANQ, 2-amino-1,4-naphthoquinone]: in the series on diaphorase (DI), the ten times Km is 360 µM, the Km was determined as 36 µM and the kcat stood at 310 s⁻¹. Besides, the “E^o′ vs Ag|AgCl” value in series [1] is listed as −0.35.

What is called Km is the substrate concentration at which the rate is half of its maximum. What is called kcat is the maximal rate divided by the concentration of active sites.
